Tested on: MV-4-11 cells
Assay: Gene expression microarray analysis (Affymetrix PrimeView) and GSEA
Assay type: cell-based, human
Design: RFU PODN (11730768_x_at) / Fold change /veh PODN (11730768_x_at) / RFU LINC00158 (11744669_a_at) / Fold change /veh LINC00158 (11744669_a_at) / RFU DUSP10 (11751237_a_at) / Fold change /veh DUSP10 (11751237_a_at) / RFU ID3 (11757404_x_at) / Fold change /veh ID3 (11757404_x_at) / RFU PLEKHG5 (11737974_s_at) / Fold change /veh PLEKHG5 (11737974_s_at) / RFU LRRC4B (11730491_at) / Fold change /veh LRRC4B (11730491_at) / RFU GIMAP4 (11747438_a_at) / Fold change /veh GIMAP4 (11747438_a_at) / RFU KRT8 (11758183_x_at) / Fold change /veh KRT8 (11758183_x_at) / RFU CNN1 (11734310_a_at) / Fold change /veh CNN1 (11734310_a_at) / RFU VPS37D (11726825_at) / Fold change /veh VPS37D (11726825_at) / RFU C10orf10 (11716522_x_at) / Fold change /veh C10orf10 (11716522_x_at) / RFU KIR2DL2 /// KIR2DL4 /// KIR2DL5A /// KIR2DL5B /// KIR2DS1 /// KIR2DS2 /// KIR2DS3 /// KIR2DS4 /// KIR3DL3 /// KIR3DL3 /// KIR3DS1 (11738374_at) / Fold change /veh KIR2DL2 /// KIR2DL4 /// KIR2DL5A /// KIR2DL5B /// KIR2DS1 /// KIR2DS2 /// KIR2DS3 /// KIR2DS4 /// KIR3DL3 /// KIR3DL3 /// KIR3DS1 (11738374_at) / RFU C1QL1 (11718748_at) / Fold change /veh C1QL1 (11718748_at) / RFU TMPRSS4 (11747572_a_at) / Fold change /veh TMPRSS4 (11747572_a_at) / RFU HAMP (11756126_x_at) / Fold change /veh HAMP (11756126_x_at) / RFU RNFT2 (11725882_a_at) / Fold change /veh RNFT2 (11725882_a_at) / RFU NR4A2 (11747474_a_at) / Fold change /veh NR4A2 (11747474_a_at) / RFU ABCC12 (11746883_a_at) / Fold change /veh ABCC12 (11746883_a_at) / RFU TMEM136 (11760407_x_at) / Fold change /veh TMEM136 (11760407_x_at) / RFU CLDN22 /// WWC2 (11732394_at) / Fold change /veh CLDN22 /// WWC2 (11732394_at) / RFU HLA-DPB1 (11760878_x_at) / Fold change /veh HLA-DPB1 (11760878_x_at) / RFU SPINT1 (11716480_a_at) / Fold change /veh SPINT1 (11716480_a_at) / RFU GAP43 (11754022_s_at) / Fold change /veh GAP43 (11754022_s_at) / RFU A4GNT (11735810_at) / Fold change /veh A4GNT (11735810_at) / RFU PRB3 (11715151_x_at) / Fold change /veh PRB3 (11715151_x_at) / RFU TUBB4B (11761932_at) / Fold change /veh TUBB4B (11761932_at) / RFU CAPN14 (11732068_a_at) / Fold change /veh CAPN14 (11732068_a_at) / RFU TMCC2 (11721928_a_at) / Fold change /veh TMCC2 (11721928_a_at) / RFU IRGQ (11745062_a_at) / Fold change /veh IRGQ (11745062_a_at) / RFU FAM174B (11720279_a_at) / Fold change /veh FAM174B (11720279_a_at) / RFU TMPRSS4 (11748680_a_at) / Fold change /veh TMPRSS4 (11748680_a_at) / RFU FAM212B (11763350_a_at) / Fold change /veh FAM212B (11763350_a_at) / RFU PLEKHG5 (11743358_a_at) / Fold change /veh PLEKHG5 (11743358_a_at) / RFU ZSCAN30 (11745921_a_at) / Fold change /veh ZSCAN30 (11745921_a_at) / RFU CMKLR1 (11741424_a_at) / Fold change /veh CMKLR1 (11741424_a_at) / RFU LOC101060620 /// MAPK8IP1 (11723275_at) / Fold change /veh LOC101060620 /// MAPK8IP1 (11723275_at) / RFU SPTSSB (11747773_x_at) / Fold change /veh SPTSSB (11747773_x_at) / RFU PRSS12 (11739890_at) / Fold change /veh PRSS12 (11739890_at) / RFU BIN1 (11741810_x_at) / Fold change /veh BIN1 (11741810_x_at) / RFU WNT11 (11732464_a_at) / Fold change /veh WNT11 (11732464_a_at) / RFU C10orf10 (11716521_a_at) / Fold change /veh C10orf10 (11716521_a_at) / RFU C5orf56 (11738089_at) / Fold change /veh C5orf56 (11738089_at) / RFU CYB561 (11721691_x_at) / Fold change /veh CYB561 (11721691_x_at) / RFU ANKRD19P (11752326_a_at) / Fold change /veh ANKRD19P (11752326_a_at) / RFU OR2T12 /// OR2T33 /// OR2T8 (11738714_s_at) / Fold change /veh OR2T12 /// OR2T33 /// OR2T8 (11738714_s_at) / RFU VCAN (11748164_a_at) / Fold change /veh VCAN (11748164_a_at) / RFU JSRP1 (11732532_at) / Fold change /veh JSRP1 (11732532_at) / RFU KRTAP10-11 (11738290_x_at) / Fold change /veh KRTAP10-11 (11738290_x_at) / RFU MYO3A (11730013_a_at) / Fold change /veh MYO3A (11730013_a_at) / RFU EBF3 (11725865_a_at) / Fold change /veh EBF3 (11725865_a_at) / RFU CAMK2N1 (11719241_x_at) / Fold change /veh CAMK2N1 (11719241_x_at) / RFU C5orf56 (11738088_a_at) / Fold change /veh C5orf56 (11738088_a_at) / RFU OLFML3 (11715873_a_at) / Fold change /veh OLFML3 (11715873_a_at) / RFU LOC100653217 /// NTM (11731650_a_at) / Fold change /veh LOC100653217 /// NTM (11731650_a_at) / RFU MAPK11 (11762145_a_at) / Fold change /veh MAPK11 (11762145_a_at) / RFU FIZ1 (11724087_x_at) / Fold change /veh FIZ1 (11724087_x_at) / RFU OASL (11726364_x_at) / Fold change /veh OASL (11726364_x_at) / RFU SOX15 (11748057_x_at) / Fold change /veh SOX15 (11748057_x_at) / RFU CD79A (11719716_a_at) / Fold change /veh CD79A (11719716_a_at) / RFU HIST1H1D (11736915_at) / Fold change /veh HIST1H1D (11736915_at) / RFU CASKIN2 (11723855_a_at) / Fold change /veh CASKIN2 (11723855_a_at) / RFU LOC730098 (11760151_x_at) / Fold change /veh LOC730098 (11760151_x_at) / RFU OR4N2 (11742367_at) / Fold change /veh OR4N2 (11742367_at) / RFU PRRT2 (11749266_a_at) / Fold change /veh PRRT2 (11749266_a_at) / RFU SNX32 (11753110_a_at) / Fold change /veh SNX32 (11753110_a_at) / RFU CDHR5 (11726645_a_at) / Fold change /veh CDHR5 (11726645_a_at) / RFU RCAN1 (11760418_a_at) / Fold change /veh RCAN1 (11760418_a_at) / RFU FAM167A (11723789_a_at) / Fold change /veh FAM167A (11723789_a_at) / RFU FAM26E (11764081_at) / Fold change /veh FAM26E (11764081_at) / RFU ISYNA1 (11749810_s_at) / Fold change /veh ISYNA1 (11749810_s_at) / RFU ACY1 (11761880_at) / Fold change /veh ACY1 (11761880_at) / RFU 11764098_at / Fold change /veh 11764098_at / RFU SAMD14 (11745864_x_at) / Fold change /veh SAMD14 (11745864_x_at) / RFU NPB (11741838_a_at) / Fold change /veh NPB (11741838_a_at) / RFU TMPRSS6 (11731388_a_at) / Fold change /veh TMPRSS6 (11731388_a_at) / RFU KRTAP10-2 (11738614_at) / Fold change /veh KRTAP10-2 (11738614_at) / RFU ARHGAP8 /// PRR5-ARHGAP8 (11727945_x_at) / Fold change /veh ARHGAP8 /// PRR5-ARHGAP8 (11727945_x_at) / RFU KRTAP5-7 /// NADSYN1 (11734609_at) / Fold change /veh KRTAP5-7 /// NADSYN1 (11734609_at) / RFU RASL12 (11751679_a_at) / Fold change /veh RASL12 (11751679_a_at) / RFU CDKN2B (11736163_a_at) / Fold change /veh CDKN2B (11736163_a_at) / RFU PRF1 (11729649_at) / Fold change /veh PRF1 (11729649_at) / RFU, ZNF638 /// ZNF638-IT1 / Fold change vs veh, ZNF638 /// ZNF638-IT1 / RFU, PANK3 / Fold change vs veh, PANK3 / RFU, SH3YL1 / Fold change vs veh, SH3YL1 / RFU, ZEB2 / Fold change vs veh, ZEB2 / RFU, NRIP1 / Fold change vs veh, NRIP1 / RFU, PTTG1IP / Fold change vs veh, PTTG1IP / RFU, CAPN2 / Fold change vs veh, CAPN2 / RFU, MED14 / Fold change vs veh, MED14 / RFU, SNORA58 / Fold change vs veh, SNORA58 / RFU, C1orf63 / Fold change vs veh, C1orf63 / RFU, LRRFIP1 / Fold change vs veh, LRRFIP1 / RFU, NDUFAF7 / Fold change vs veh, NDUFAF7 / RFU, SLC12A2 / Fold change vs veh, SLC12A2 / RFU, IBTK / Fold change vs veh, IBTK / RFU, ESF1 / Fold change vs veh, ESF1 / Fold change vs veh, TMEM50B / RFU, TAOK1 / Fold change vs veh, TAOK1 / RFU, ACBD3 / Fold change vs veh, ACBD3 / RFU, TMA16 / Fold change vs veh, TMA16 / RFU, RWDD3 / Fold change vs veh, RWDD3 / RFU, BCAT1 / Fold change vs veh, BCAT1 / RFU, EDEM3 / Fold change vs veh, EDEM3 / RFU, TMEM33 / Fold change vs veh, TMEM33 / RFU, WDR75 / Fold change vs veh, WDR75 / RFU, AHCTF1 / Fold change vs veh, AHCTF1 / RFU, TFRC / Fold change vs veh, TFRC / RFU, ZDHHC17 / Fold change vs veh, ZDHHC17 / RFU, NOM1 / Fold change vs veh, NOM1 / RFU, ARL8B / Fold change vs veh, ARL8B / RFU, ZBTB11 / Fold change vs veh, ZBTB11 / RFU, TAMM41 / Fold change vs veh, TAMM41 / RFU, KIAA1704 /// LOC100996395 / Fold change vs veh, KIAA1704 /// LOC100996395 / RFU, ING1 / Fold change vs veh, ING1 / RFU, TRMT61B / Fold change vs veh, TRMT61B / RFU, FUBP3 / Fold change vs veh, FUBP3 / RFU, TP53 / Fold change vs veh, TP53 / RFU, TNKS2 / Fold change vs veh, TNKS2 / RFU, ZFP14 / Fold change vs veh, ZFP14 / RFU, ACTR2 / Fold change vs veh, ACTR2 / RFU, PPP3R1 / Fold change vs veh, PPP3R1 / RFU, PIK3R1 / Fold change vs veh, PIK3R1 / RFU, HNRNPA1 / Fold change vs veh, HNRNPA1 / RFU, RNF170 / Fold change vs veh, RNF170 / RFU, ZNF28 / Fold change vs veh, ZNF28 / RFU, RNGTT / Fold change vs veh, RNGTT / RFU, OGT / Fold change vs veh, OGT / RFU, BRD1 / Fold change vs veh, BRD1 / RFU, MARS / Fold change vs veh, MARS / RFU, ZNF655 / Fold change vs veh, ZNF655 / RFU, FAHD1 / Fold change vs veh, FAHD1 / RFU, BDP1 / Fold change vs veh, BDP1 / RFU, LRRCC1 / Fold change vs veh, LRRCC1 / RFU, ARID1A / Fold change vs veh, ARID1A / RFU, ZNF146 / Fold change vs veh, ZNF146 / RFU, ZNF330 / Fold change vs veh, ZNF330 / RFU, GPN3 / Fold change vs veh, GPN3 / RFU, C9orf123 / Fold change vs veh, C9orf123 / RFU, N4BP2L2 / Fold change vs veh, N4BP2L2 / RFU, ARFIP1 / Fold change vs veh, ARFIP1 / RFU, FAM179B / Fold change vs veh, FAM179B / RFU, BCL10 / Fold change vs veh, BCL10 / RFU, UHRF1BP1L / Fold change vs veh, UHRF1BP1L / RFU, BET1 / Fold change vs veh, BET1 / RFU, CNOT2 / Fold change vs veh, CNOT2 / RFU, ZNF268 / Fold change vs veh, ZNF268 / Fold change vs veh, ZNF507 / RFU, DGCR2 / Fold change vs veh, DGCR2 / RFU, WDSUB1 / Fold change vs veh, WDSUB1 / Fold change vs veh, HSP90B1 /// MIR3652 / RFU, ADSS / Fold change vs veh, ADSS / RFU, GK / Fold change vs veh, GK / RFU, ZNF148 / Fold change vs veh, ZNF148 / RFU, TAF9 / Fold change vs veh, TAF9 / RFU, SLC1A5 / Fold change vs veh, SLC1A5 / RFU, SLMO2 / Fold change vs veh, SLMO2 / RFU, ABCC4 / Fold change vs veh, ABCC4 / RFU, LOC101060439 /// RAP1B / Fold change vs veh, LOC101060439 /// RAP1B / RFU, RFX7 / Fold change vs veh, RFX7 / RFU, GTPBP10 / Fold change vs veh, GTPBP10 / RFU, CNEP1R1 / Fold change vs veh, CNEP1R1 / RFU, BIVM-ERCC5 /// ERCC5 / Fold change vs veh, BIVM-ERCC5 /// ERCC5 / RFU, ILF3 / Fold change vs veh, ILF3 / RFU 11762660_at / Fold change /veh 11762660_at / RFU VCAN (11757783_s_at) / Fold change /veh VCAN (11757783_s_at) / RFU DDX43 (11728927_at) / Fold change /veh DDX43 (11728927_at) / RFU KRT8 (11758188_x_at) / Fold change /veh KRT8 (11758188_x_at) / RFU NKD1 (11759106_at) / Fold change /veh NKD1 (11759106_at) / RFU SRD5A1 (11742802_a_at) / Fold change /veh SRD5A1 (11742802_a_at) / RFU TPSAB1 /// TPSB2 (11721975_s_at) / Fold change /veh TPSAB1 /// TPSB2 (11721975_s_at) / RFU GSTM3 (11746129_a_at) / Fold change /veh GSTM3 (11746129_a_at) / RFU IL23R (11737362_x_at) / Fold change /veh IL23R (11737362_x_at) / RFU TMEM51 (11727254_a_at) / Fold change /veh TMEM51 (11727254_a_at) / RFU PIWIL2 (11732686_x_at) / Fold change /veh PIWIL2 (11732686_x_at) / RFU ORM1 (11744905_x_at) / Fold change /veh ORM1 (11744905_x_at) / RFU CCDC152 (11743942_at) / Fold change /veh CCDC152 (11743942_at) / RFU ECM1 (11717891_a_at) / Fold change /veh ECM1 (11717891_a_at) / RFU IL23R (11748794_a_at) / Fold change /veh IL23R (11748794_a_at) / RFU TNFAIP8L3 (11732012_x_at) / Fold change /veh TNFAIP8L3 (11732012_x_at) / RFU MBOAT4 (11741988_at) / Fold change /veh MBOAT4 (11741988_at) / RFU 11764193_at / Fold change /veh 11764193_at / RFU TMEM53 (11763286_at) / Fold change /veh TMEM53 (11763286_at) / RFU MAGEB2 (11727129_at) / Fold change /veh MAGEB2 (11727129_at) / RFU TMEM200A (11744735_a_at) / Fold change /veh TMEM200A (11744735_a_at) / RFU CCDC152 (11751479_a_at) / Fold change /veh CCDC152 (11751479_a_at) / RFU FAM211A (11726209_a_at) / Fold change /veh FAM211A (11726209_a_at) / RFU RGS16 (11746705_a_at) / Fold change /veh RGS16 (11746705_a_at) / RFU VCAN (11755009_s_at) / Fold change /veh VCAN (11755009_s_at) / RFU RHOB (11743442_s_at) / Fold change /veh RHOB (11743442_s_at) / RFU RGS16 (11720943_a_at) / Fold change /veh RGS16 (11720943_a_at) / RFU RGS16 (11720944_at) / Fold change /veh RGS16 (11720944_at) / RFU, VPS4B / Fold change vs veh, VPS4B / RFU, CREB1 / Fold change vs veh, CREB1 / RFU, DNAJC13 / Fold change vs veh, DNAJC13 / RFU, GNAQ / Fold change vs veh, GNAQ / RFU, CDK5R1 / Fold change vs veh, CDK5R1 / RFU, ZRANB3 / Fold change vs veh, ZRANB3 / RFU, CUL4A / Fold change vs veh, CUL4A / RFU, CCNY / Fold change vs veh, CCNY / RFU, UFL1 / Fold change vs veh, UFL1 / RFU, COG3 / Fold change vs veh, COG3 / RFU, DIAPH2 / Fold change vs veh, DIAPH2 / RFU, SKA2 / Fold change vs veh, SKA2 / RFU, AFF3 / Fold change vs veh, AFF3 / RFU, LMF1 / Fold change vs veh, LMF1 / RFU, IPO11 / Fold change vs veh, IPO11 / RFU, DFFB / Fold change vs veh, DFFB / RFU, FOXP1 / Fold change vs veh, FOXP1 / RFU, CARD8 / Fold change vs veh, CARD8 / RFU, STRN3 / Fold change vs veh, STRN3 / RFU, ADK / Fold change vs veh, ADK / RFU, RASSF2 / Fold change vs veh, RASSF2 / RFU, WIPF1 / Fold change vs veh, WIPF1 / RFU, LARP1B / Fold change vs veh, LARP1B / RFU, RASA1 / Fold change vs veh, RASA1 / RFU, RB1 / Fold change vs veh, RB1 / RFU, PPFIA1 / Fold change vs veh, PPFIA1 / RFU, MAT2A / Fold change vs veh, MAT2A / RFU, CCT5 / Fold change vs veh, CCT5 / RFU, WDR92 / Fold change vs veh, WDR92 / RFU, CUX1 / Fold change vs veh, CUX1 / RFU, TTC7A / Fold change vs veh, TTC7A / RFU, TMEM135 / Fold change vs veh, TMEM135 / RFU, DEPTOR / Fold change vs veh, DEPTOR / RFU, CPM / Fold change vs veh, CPM / RFU, DNAJB6 / Fold change vs veh, DNAJB6 / RFU, CACNA2D3 / Fold change vs veh, CACNA2D3 / RFU, DTX4 / Fold change vs veh, DTX4 / RFU, TFCP2 / Fold change vs veh, TFCP2 / RFU, GMCL1 /// GMCL1P1 / Fold change vs veh, GMCL1 /// GMCL1P1 / RFU, AEBP2 / Fold change vs veh, AEBP2 / RFU, SNHG1 /// SNORD22 /// SNORD25 /// SNORD26 /// SNORD27 /// SNORD28 /// SNORD29 /// SNORD31 / Fold change vs veh, SNHG1 /// SNORD22 /// SNORD25 /// SNORD26 /// SNORD27 /// SNORD28 /// SNORD29 /// SNORD31 / Fold change (Aza/veh), C12orf56 (ProbeSet 11735607_a_at) / Fold change (ACY-1035/veh), C12orf56 (ProbeSet 11735607_a_at) / Fold change (Aza/veh), FGFR1OP (ProbeSet 11751329_s_at) / Fold change (ACY-1035/veh), FGFR1OP (ProbeSet 11751329_s_at) / Fold change (Aza/veh), VPS36 (ProbeSet 11739960_a_at) / Fold change (ACY-1035/veh), VPS36 (ProbeSet 11739960_a_at) / RFU SYPL1 (11715823_x_at) / Fold change /veh SYPL1 (11715823_x_at) / RFU IGFBP7 (11715501_s_at) / Fold change /veh IGFBP7 (11715501_s_at) / RFU REEP3 (11722064_at) / Fold change /veh REEP3 (11722064_at) / RFU IGLL1 (11728026_x_at) / Fold change /veh IGLL1 (11728026_x_at): dose or concentration left out as unconfirmed
Details: MV-4-11 cells, 48 hours

Compound: Nc1ncn([C@@H]2O[C@H](CO)[C@@H](O)[C@H]2O)c(=O)n1 [azacitidine]
- RFU ID3 (11757404_x_at): 51.53 RFU

From publication PMC5218480 (PLoS ONE, 2017)
